The structures appear in SMILES notation. Where two headings read alike, the source gives them in different places.

For one assay, the target named is HiBiT tagged Wee1 (Homo sapiens, UniProt P30291). In words: Wee1 protein degradation assay (HiBiT assay). Format: cell-based. Particulars: for Dmax: maximum percentage of Wee1 degradation, read-out: HiBiT Wee1: Dmax. (HiBiT is a short tag that completes a luciferase, so light tracks the accessible tagged protein.)
In a further assay the test system is NCI-H1048 cells. Kind of assay: NCI-H1048 cell proliferation assay (CTG assay). Format: cell-based. Particulars: 120 hours, read-out: CTG cellular assay_H1048: IC50. On the procedure:
NCI-H1048 Cell Proliferation Assay (CTG Assay) The following is an example of an assay that can be used to determine the anti-proliferative activity of Wee1 PROTACs in a small cell lung cancer cell line, NCI-H1048 (ATCC Cat #CRL-5853). This cell line was cultured in RPMI-1640 medium supplemented with 10% FBS. About 1,200 NCI-H1048 cells in 50 μL of culture medium were seeded into a 384-well plate (Cat #3764, Corning), pre-spotted with compounds using the Echo 650 liquid handler (Beckman). The dose-response-curve (DRC) typically has 10-points with a highest concentration at 10 μM, and half-log diluted to as low as 0.316 nM, plus a DMSO control. Assay plates were incubated at 37° C. with 5% CO2 for 120 hours. After that, 20 μL of the CellTiter-Glo (CTG) Luminescent Cell Viability Assay Reagent (Cat #G7573, Promega) was added to each well and incubated at room temperature for 30 minutes. Luminescence was then measured with Pherastar microplate reader (BMG Labtech). All percentage of cell growth inhibition curves were processed using Collaborative Drug Discovery Vault.
Cell viability reads in compound-treated wells were normalized to that of DMSO control and expressed as Percent of Control (PoC, y). A four Parameter Logistic Model was used to determine the compound's EC50 and DC50, using the following equation: […]

Where [1] appears, read: engineered HT-1080 cells, 20 hours.

Sequence of HiBiT tagged Wee1 (P30291 whole entry): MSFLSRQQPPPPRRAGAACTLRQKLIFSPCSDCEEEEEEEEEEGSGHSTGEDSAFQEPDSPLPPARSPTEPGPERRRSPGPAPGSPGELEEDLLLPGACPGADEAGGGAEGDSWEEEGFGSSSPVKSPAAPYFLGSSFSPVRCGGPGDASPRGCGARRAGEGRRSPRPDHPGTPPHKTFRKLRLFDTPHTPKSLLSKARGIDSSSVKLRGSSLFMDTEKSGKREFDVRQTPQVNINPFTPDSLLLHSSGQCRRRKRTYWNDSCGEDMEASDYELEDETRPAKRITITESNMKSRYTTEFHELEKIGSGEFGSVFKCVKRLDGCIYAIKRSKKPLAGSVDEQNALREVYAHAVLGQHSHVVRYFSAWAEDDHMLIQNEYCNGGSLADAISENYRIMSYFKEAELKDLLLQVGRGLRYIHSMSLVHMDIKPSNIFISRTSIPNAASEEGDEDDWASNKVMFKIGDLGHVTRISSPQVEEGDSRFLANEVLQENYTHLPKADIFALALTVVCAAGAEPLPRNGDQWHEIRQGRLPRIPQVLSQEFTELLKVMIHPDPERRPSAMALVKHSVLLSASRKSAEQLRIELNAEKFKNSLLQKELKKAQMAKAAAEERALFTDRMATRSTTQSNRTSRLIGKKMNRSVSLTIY

The term DC50 denotes the concentration giving 50% degradation. A lower DC50 goes with a more potent degrader. One may read the Dmax as the greatest extent of degradation seen. As a reminder, the IC50 is the concentration that inhibits the measured activity by half. `C=CCn1c(=O)c2cnc(Nc3ccc(N4CCC(CN5CCN(c6ccc(NC7CCC(=O)NC7=O)cc6F)CC5)CC4)cc3)nc2n1-c1cccc(C(C)(C)O)n1` (single isomer, unassigned) [Compound 100-A]: on HiBiT tagged Wee1 (setting [1]), the DC50 is under 100 nM and the Dmax is over 75%. Besides, in the assay on NCI-H1048 cells (Homo sapiens), the IC50 is at most 25 nM.
`C=CCn1c(=O)c2cnc(Nc3ccc(N4CCC(CN5CCN(c6ccc(NC7CCC(=O)NC7=O)cc6F)CC5)CC4)cc3)nc2n1-c1cccc(C(C)(C)O)n1` (single isomer, unassigned) [Compound 100-B] yielded a DC50 at HiBiT tagged Wee1 (setting [1]) of under 100 nM. Also, the IC50 in the assay on NCI-H1048 cells is at most 25 nM.
On to `C=CCn1c(=O)c2cnc(Nc3ccc(N4CCC(CN5CCN(c6ccc(NC7CCC(=O)NC7=O)cc6F)CC5)CC4)cc3)nc2n1-c1ccc2c(n1)[C@@](C)(O)CC2` (single isomer, unassigned) [Compound 121], for which, on HiBiT tagged Wee1 (setting [1]), the DC50 is under 100 nM and the Dmax is over 75%. For the same compound, in the assay with NCI-H1048 cells (Homo sapiens), the IC50 was at most 25 nM.
Taken in the same sequence, the figures for `C[C@]1(O)CC/C=C\Cn2c(=O)c3cnc(Nc4ccc(N5CCN(CC6CCN(c7ccc(NC8CCC(=O)NC8=O)cc7F)CC6)CC5)cc4)nc3n2-c2cccc1n2` (single isomer, unassigned) [Compound 141] were under 100 nM, over 75% and at most 25 nM.
As for `C=CCn1c(=O)c2cnc(Nc3ccc(N4CCN(CC5CCN(c6ccc(NC7CCC(=O)NC7=O)cc6F)CC5)CC4)cc3)nc2n1-c1ccc2c(n1)[C@@](O)(CC)CC2` (single isomer, unassigned) [Compound 150-A], on HiBiT tagged Wee1 (setting [1]), the DC50 is under 100 nM and the Dmax was over 75%. The IC50 in the assay on NCI-H1048 cells (Homo sapiens) was at most 25 nM.
Compound `C=CCn1c(=O)c2cnc(Nc3ccc(N4CCN(CC5CCN(c6ccc(NC7CCC(=O)NC7=O)cc6F)CC5)CC4)cc3)nc2n1-c1ccc2c(n1)[C@](C)(O)CC2` (single isomer, unassigned) [Compound 152-A] came in with a DC50 at HiBiT tagged Wee1 (setting [1]) of under 100 nM. For the same compound, the IC50 in the assay with NCI-H1048 cells (Homo sapiens) was at most 25 nM.
For `C=CCn1c(=O)c2cnc(Nc3ccc(N4CCN(CC5CCN(c6ccc(NC7CCC(=O)NC7=O)cc6F)CC5)CC4)cc3)nc2n1-c1ccc2c(n1)[C@](C)(O)CC2` (single isomer, unassigned) [Compound 152-B], at HiBiT tagged Wee1 (setting [1]), the DC50 is under 100 nM and the Dmax is over 75%. Further, the IC50 with NCI-H1048 cells (Homo sapiens) was at most 25 nM.
The matching figures for `O=C1CCC(N2C(=O)c3cccc(NCCCN4CCN(c5ccc(Nc6ncc7c(=O)n(-c8c(Cl)cccc8Cl)c8nccn8c7n6)cc5)CC4)c3C2=O)C(=O)N1` (centres unmarked) [Compound 2]: under 100 nM, 50 to 75% and 25 to 100 nM.
Take `O=C1CCC(N2C(=O)c3ccc(N4CCC(CN5CCN(c6ccc(Nc7ncc8c(=O)n(-c9c(Cl)cccc9Cl)c9nccn9c8n7)cc6)CC5)CC4)cc3C2=O)C(=O)N1` (centres unmarked) [Compound 3]: at HiBiT tagged Wee1 (setting [1]), the DC50 was under 100 nM and the Dmax lay in the range of 50 to 75%. For the same compound, in the assay on NCI-H1048 cells (Homo sapiens), the IC50 lay in the range of 25 to 100 nM.
With `C=CCn1c(=O)c2cnc(Nc3ccc4c(c3)CN(CC3CN(c5ccc6c(c5)C(=O)N(C5CCC(=O)NC5=O)C6=O)C3)CC4)nc2n1-c1cccc(C(C)(C)O)n1` (centres unmarked) [Compound 6], on HiBiT tagged Wee1 (setting [1]), the DC50 was over 1000 nM and the Dmax was under 50%. Moreover, the IC50 in the assay on NCI-H1048 cells (Homo sapiens) is over 100 nM.
For `C=CCn1c(=O)c2cnc(Nc3ccc4c(c3)CN(CC3CCN(c5ccc6c(c5)C(=O)N(C5CCC(=O)NC5=O)C6=O)CC3)CC4)nc2n1-c1cccc(C(C)(C)O)n1` (centres unmarked) [Compound 7], at HiBiT tagged Wee1 (setting [1]), the DC50 was over 1000 nM and the Dmax was under 50%. For the same compound, the IC50 in the assay on NCI-H1048 cells (Homo sapiens) was over 100 nM.
The matching figures for `C=CCn1c(=O)c2cnc(Nc3ccc(N4CCN(CC5CCN(c6ccc7c(c6)C(=O)N(C6CCC(=O)NC6=O)C7=O)CC5)CC4)cc3)nc2n1-c1cccc(C(C)(C)O)n1` (centres unmarked) [Compound 8]: under 100 nM, 50 to 75% and 25 to 100 nM.
Taken in the same sequence, the figures for `C=CCn1c(=O)c2cnc(Nc3ccc(C4CCN(CC5CN(c6ccc7c(c6)C(=O)N(C6CCC(=O)NC6=O)C7=O)C5)CC4)cc3)nc2n1-c1cccc(C(C)(C)O)n1` (centres unmarked) [Compound 9] were under 100 nM, 50 to 75% and 25 to 100 nM.
Take `C=CCn1c(=O)c2cnc(Nc3ccc(N4CCN(CC5CN(c6ccc7c(c6)C(=O)N(C6CCC(=O)NC6=O)C7=O)C5)CC4)cc3)nc2n1-c1cccc(C(C)(C)O)n1` (centres unmarked) [Compound 10]: on HiBiT tagged Wee1 (setting [1]), the DC50 is under 100 nM and the Dmax lay in the range of 50 to 75%. In addition, the IC50 in the assay with NCI-H1048 cells (Homo sapiens) lay within 25 to 100 nM.
`O=C1CCC(N2C(=O)c3ccc(N4CCC(CN5CCC(c6ccc(Nc7ncc8c(=O)n(-c9c(Cl)cccc9Cl)c9nccn9c8n7)cc6)CC5)CC4)cc3C2=O)C(=O)N1` (centres unmarked) [Compound 14]: on HiBiT tagged Wee1 (setting [1]), the DC50 was under 100 nM and the Dmax is 50 to 75%. Moreover, the IC50 in the assay on NCI-H1048 cells (Homo sapiens) was 25 to 100 nM.
For `Cc1cc(Nc2ncc3c(n2)N(C)CN(c2c(Cl)cccc2Cl)C3=O)ccc1C1CCN(CC2CCN(c3ccc4c(c3)C(=O)N(C3CCC(=O)NC3=O)C4=O)CC2)CC1` (centres unmarked) [Compound 16], at HiBiT tagged Wee1 (setting [1]), the DC50 was over 1000 nM and the Dmax is under 50%. Also, the IC50 in the assay with NCI-H1048 cells (Homo sapiens) is over 100 nM.
`CN1CN(c2c(Cl)cccc2Cl)C(=O)c2cnc(Nc3ccc(N4CCN(CCCNc5cccc6c5C(=O)N(C5CCC(=O)NC5=O)C6=O)CC4)cc3)nc21` (centres unmarked) [Compound 17]: the Dmax at HiBiT tagged Wee1 (HT-1080, […]) is under 50%. At HiBiT tagged Wee1 (setting [1]), this compound gave a DC50 of over 1000 nM. Also, the IC50 in the assay on NCI-H1048 cells (Homo sapiens) was over 100 nM.
For the compound `Cc1cc(Nc2ncc3c(n2)N(C)CN(c2c(Cl)cccc2Cl)C3=O)ccc1C1CCN(CC2CN(c3ccc4c(c3)C(=O)N(C3CCC(=O)NC3=O)C4=O)C2)CC1` (centres unmarked) [Compound 18], on HiBiT tagged Wee1 (setting [1]), the DC50 was over 1000 nM and the Dmax is under 50%. Moreover, in the assay on NCI-H1048 cells (Homo sapiens), the IC50 is over 100 nM.
The matching figures for `C=CCn1c(=O)c2cnc(Nc3ccc(C4CCN(CC5CCN(c6ccc7c(c6)C(=O)N(C6CCC(=O)NC6=O)C7=O)CC5)CC4)cc3)nc2n1-c1cccc(C(C)(C)O)n1` (centres unmarked) [Compound 21]: under 100 nM, 50 to 75% and 25 to 100 nM.
For `C=CCn1c(=O)c2cnc(Nc3ccc(N4CCN(CC5CCN(c6c(F)cc(NC7CCC(=O)NC7=O)cc6F)CC5)CC4)cc3)nc2n1-c1ccc2c(n1)[C@@](O)(CC)CC2` (some centres unmarked) [Compound 175], at HiBiT tagged Wee1 (setting [1]), the DC50 is under 100 nM and the Dmax is over 75%.
`C=CCn1c(=O)c2cnc(Nc3ccc(N4CCN(CC5CCN(c6cc(OC)c(NC7CCC(=O)NC7=O)cc6F)CC5)CC4)cc3)nc2n1-c1ccc2c(n1)[C@@](O)(CC)CC2` (some centres unmarked) [Compound 177]: at HiBiT tagged Wee1 (setting [1]), the DC50 is under 100 nM and the Dmax is over 75%.
For the compound `C=CCn1c(=O)c2cnc(Nc3ccc(N4CCC(N5CC6(CN(c7ccc8c(N9CCC(=O)NC9=O)nn(C)c8c7)C6)C5)C(F)(F)C4)cc3)nc2n1-c1ccc2c(n1)[C@@](O)(CC)CC2` (some centres unmarked) [Compound 178], on HiBiT tagged Wee1 (setting [1]), the DC50 is under 100 nM and the Dmax fell in the range of 50 to 75%.
Take `C=CCn1c(=O)c2cnc(Nc3ccc(N4CCN(C5CCN(c6ccc(NC7CCC(=O)NC7=O)cc6F)CC5)[C@H](C)C4)cc3)nc2n1-c1ccc2c(n1)[C@@](O)(CC)CC2` (some centres unmarked) [Compound 186]: on HiBiT tagged Wee1 (setting [1]), the DC50 was under 100 nM and the Dmax is over 75%.
For `C=CCn1c(=O)c2cnc(Nc3ccc(N4CCN(CC5CCN(c6ncc(NC7CCC(=O)NC7=O)cc6F)CC5)CC4)nc3)nc2n1-c1ccc2c(n1)[C@@](O)(CC)CC2` (some centres unmarked) [Compound 195], on HiBiT tagged Wee1 (setting [1]), the DC50 was under 100 nM and the Dmax was over 75%.
For `C=CCn1c(=O)c2cnc(Nc3ccc(N4CCC(CN5CCN(c6cc7c(cc6F)c(N6CCC(=O)NC6=O)nn7C)CC5)CC4)cc3)nc2n1-c1ccc2c(n1)[C@@](O)(CC)CC2` [Compound 201], at HiBiT tagged Wee1 (setting [1]), the DC50 is under 100 nM and the Dmax was over 75%.
For `C=CCn1c(=O)c2cnc(Nc3ccc(N4CCC(CC(=O)Nc5cccc6c(N7CCC(=O)NC7=O)nn(C)c56)CC4)cc3)nc2n1-c1ccc2c(n1)[C@@](O)(CC)CC2` [Compound 202], on HiBiT tagged Wee1 (setting [1]), the DC50 was over 1000 nM and the Dmax was under 50%.
Turning to `C=CCn1c(=O)c2cnc(Nc3ccc(N4CCN(CC5CCN(c6ccc(NC7CCC(=O)NC7=O)nc6)CC5)CC4)cc3)nc2n1-c1ccc2c(n1)[C@@](O)(CC)CC2` (some centres unmarked) [Compound 203], at HiBiT tagged Wee1 (setting [1]), the DC50 was under 100 nM and the Dmax fell in the range of 50 to 75%.
Take `C=CCn1c(=O)c2cnc(Nc3ccc(N4CCN(CC5CCN(c6ccc(NC7CCC(=O)NC7=O)cc6F)CC5)CC4)cc3)nc2n1-c1cccc(C(C)(C)C)n1` (centres unmarked) [Compound 204]: on HiBiT tagged Wee1 (setting [1]), the DC50 was under 100 nM and the Dmax was over 75%.
For `C=CCn1c(=O)c2cnc(Nc3ccc(N4CCN(CC5CCN(c6ccc(NC7CCC(=O)NC7=O)cc6F)CC5)CC4)cc3)nc2n1-c1cccc(OC)n1` (centres unmarked) [Compound 205], at HiBiT tagged Wee1 (setting [1]), the 50% degradation concentration (DC50) was under 100 nM and the Dmax is over 75%.
With `C=CCn1c(=O)c2cnc(Nc3ccc(N4CCN(CC5CCN(c6ccc(NC7CCC(=O)NC7=O)cc6F)CC5)[C@H](COC)C4)cc3)nc2n1-c1ccc2c(n1)[C@@](O)(CC)CC2` (some centres unmarked) [Compound 206], on HiBiT tagged Wee1 (setting [1]), the DC50 was under 100 nM and the Dmax was over 75%.

Source of the values: US20250049798A1, “WEE1 PROTEIN KINASE DEGRADATION AGENT AND USE THEREOF” (HANGZHOU GLUBIO PHARMACEUTICAL CO. LTD., priority 2021, published 2025).
